According to patent publication US5081232A, “Complexes of TC99m radiopharmaceuticals” (priority 1987, dated 1992):
Like-named read-outs stand apart in the source and are kept apart here.

Experiments:
[1] = rat, in vivo, iv
Protocol: (§1) 0.1 ml Tc^99m prep was injected i.v. into a lateral tail vein of 6 anaesthetised rats.
(§2) At 2 minutes and 60 minutes post injection, 3 rats were sacrificed by decapitation, bled from the neck and dissected. The following organs were removed at dissection: kidney, bladder(+urine), lung, liver, spleen, stomach, small intestine, large intestine, brain (weighed), heart (weighed), thyroid, and samples of blood (weighed) and muscle (weighed, the residual carcass and the tail (injection site). Subsequently samples were counted in an automatic twin crystal gamma counter.
(§3) Percentage biodistribution of injected material was calculated (after correction for background) for all organs using the formula: [formula]
(§4) Since only samples of muscle and blood were taken, the percentage in these tissues was calculated assuming blood and muscle to represent 5.8 and 43% of total animal weight respectively using the formula: [formula] where CF= 0.058 for blood

[2] = Animal biodistribution (in vivo, i.v. injection); settings: rats, 2 min p.i.
Protocol: as §1, §2, §3, §4

| Structure (SMILES) | Blood, % injected dose/organ ([1]; 2 min) [% injected dose/organ] | Heart, % injected dose/organ ([1]; 2 min) [% injected dose/organ] | Heart/Blood Counts/Gram ratio ([1]; 2 min) | Heart/Liver Counts/Gram ratio ([1]; 2 min) | Heart/Muscle Counts/Gram ratio ([1]; 2 min) | Kidney + Urine, % injected dose/organ ([1]; 2 min) [% injected dose/organ] | Liver + GI, % injected dose/organ ([1]; 2 min) [% injected dose/organ] | Liver, % injected dose/organ ([1]; 2 min) [% injected dose/organ] | Lung, % injected dose/organ ([1]; 2 min) [% injected dose/organ] | Muscle, % injected dose/organ ([1]; 2 min) [% injected dose/organ] | Blood, % injected dose/organ ([1]; 60 min) [% injected dose/organ] | Heart, % injected dose/organ ([1]; 60 min) [% injected dose/organ] | Heart/Blood Counts/Gram ratio ([1]; 60 min) | Heart/Liver Counts/Gram ratio ([1]; 60 min) | Heart/Lung Counts/Gram ratio ([1]; 60 min) | Heart/Muscle Counts/Gram ratio ([1]; 60 min) | Kidney + Urine, % injected dose/organ ([1]; 60 min) [% injected dose/organ] | Liver + GI, % injected dose/organ ([1]; 60 min) [% injected dose/organ] | Liver, % injected dose/organ ([1]; 60 min) [% injected dose/organ] | Lung, % injected dose/organ ([1]; 60 min) [% injected dose/organ] | further results |
| --- | --- | --- | --- | --- | --- | --- | --- | --- | --- | --- | --- | --- | --- | --- | --- | --- | --- | --- | --- | --- | --- |
| CCP(CC)CCP(CC)CC.CCP(CC)CCP(CC)CC.O=[N][99Tc+][Cl].[Cl-] [[^99m Tc(NO(DEPE)2 Cl]^+] | 6.00 | 1.06 | 3.03 | 0.73 | 5.94 | 13.8 | 37.3 | 23.63 | 2.98 | 22.9 | 0.41 | 0.92 | 38.1 | 1.75 | 0.6 | 6.18 | 19.3 | 47.0 | 7.54 | 1.57 | Heart/Lung Counts/Gram ratio ([1]; 2 min): 0.4; Muscle, % injected dose/organ ([1]; 60 min): 19.1 % injected dose/organ |
| CCCP(C)CCP(C)CCC.CCCP(C)CC[P](C)(CCC)[99Tc+]([Cl])[N]=O (centres unmarked) [[^99m Tc(NO) × (PMPE)2]^+] | 3.27 | 0.92 | 4.15 | 0.44 | 4.78 | 13.3 | 44.7 | 27.4 | 1.40 | 21.1 | 0.42 | 0.77 | 27.8 | 1.65 | 2.3 | 5.01 | 15.2 | 53.6 | 6.23 | 0.53 | Heart/Lung Counts/Gram ratio [2]: 1.0; Muscle, % injected dose/organ ([1]; 60 min): 17.5 % injected dose/organ |
